Measurements from the supplement of paper PMC10307832.

Assays:
Experiment in all cases: relative viability (nuclei count vs DMSO), 5 days (fraction); higher = more cells survive
Tozasertib + Luminespib = compound: Cc1cc(Nc2cc(N3CCN(C)CC3)nc(Sc3ccc(NC(=O)C4CC4)cc3)n2)n[nH]1 [Tozasertib] + CCNC(=O)c1noc(-c2cc(C(C)C)c(O)cc2O)c1-c1ccc(CN2CCOCC2)cc1 [Luminespib] (partner 0.01 µM)
Method in brief: (§1)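 Lung cancer cell lines were seeded in 1536-well plates and dosed by pin tool the next day, with either a single drug or a fixed anchor-drug dose combined with five library-drug doses (not always all listed) spaced in √10 steps. Five days later, one step fixed the cells and stained their nuclei (final 0.05% Triton X-100, 1% formaldehyde, 1 ug/ml Hoechst), and nuclei were counted on 4× images. Relative viability is the nuclei count in treated wells divided by the count in vehicle wells, and each value is the median of duplicate plates.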

Tozasertib + Crizotinib = compound: Cc1cc(Nc2cc(N3CCN(C)CC3)nc(Sc3ccc(NC(=O)C4CC4)cc3)n2)n[nH]1 [Tozasertib] + C[C@@H](Oc1cc(-c2cnn(C3CCNCC3)c2)cnc1N)c1c(Cl)ccc(F)c1Cl [Crizotinib] (partner 1 µM)
Method in brief: as §1

Tozasertib + Navitoclax = compound: Cc1cc(Nc2cc(N3CCN(C)CC3)nc(Sc3ccc(NC(=O)C4CC4)cc3)n2)n[nH]1 [Tozasertib] + CC1(C)CCC(c2ccc(Cl)cc2)=C(CN2CCN(c3ccc(C(=O)NS(=O)(=O)c4ccc(N[C@H](CCN5CCOCC5)CSc5ccccc5)c(S(=O)(=O)C(F)(F)F)c4)cc3)CC2)C1 [Navitoclax] (partner 0.5 µM)
Method in brief: as §1

Tozasertib + Decitabine = compound: Cc1cc(Nc2cc(N3CCN(C)CC3)nc(Sc3ccc(NC(=O)C4CC4)cc3)n2)n[nH]1 [Tozasertib] + Nc1ncn([C@H]2C[C@H](O)[C@@H](CO)O2)c(=O)n1 [Decitabine] (partner 2 µM)
Method in brief: as §1

Tozasertib + Olaparib = compound: Cc1cc(Nc2cc(N3CCN(C)CC3)nc(Sc3ccc(NC(=O)C4CC4)cc3)n2)n[nH]1 [Tozasertib] + O=C(c1cc(Cc2n[nH]c(=O)c3ccccc23)ccc1F)N1CCN(C(=O)C2CC2)CC1 [Olaparib] (partner 8 µM)
Method in brief: as §1

Cell Line	relative viability (Tozasertib + Luminespib; first compound 0.004 µM)	relative viability (Tozasertib + Luminespib; first compound 0.01265 µM)	relative viability (Tozasertib + Luminespib; first compound 0.04 µM)	relative viability (Tozasertib + Luminespib; first compound 0.1265 µM)	relative viability (Tozasertib + Crizotinib; first compound 0.004 µM)	relative viability (Tozasertib + Crizotinib; first compound 0.01265 µM)	relative viability (Tozasertib + Crizotinib; first compound 0.04 µM)	relative viability (Tozasertib + Crizotinib; first compound 0.1265 µM)	relative viability (Tozasertib + Navitoclax; first compound 0.004 µM)	relative viability (Tozasertib + Navitoclax; first compound 0.01265 µM)	relative viability (Tozasertib + Navitoclax; first compound 0.04 µM)	relative viability (Tozasertib + Navitoclax; first compound 0.1265 µM)	relative viability (Tozasertib + Decitabine; first compound 0.004 µM)	relative viability (Tozasertib + Decitabine; first compound 0.01265 µM)	relative viability (Tozasertib + Decitabine; first compound 0.04 µM)	relative viability (Tozasertib + Decitabine; first compound 0.1265 µM)	relative viability (Tozasertib + Olaparib; first compound 0.004 µM)	relative viability (Tozasertib + Olaparib; first compound 0.04 µM)	relative viability (Tozasertib + Olaparib; first compound 0.01265 µM)	relative viability (Tozasertib + Olaparib; first compound 0.1265 µM)
NCI-H2405	0.673	0.67	0.58	0.712	0.844	0.83	0.857	0.67	0.795	0.95	0.671	0.871	0.721	0.699	0.715	0.683	0.913	0.691	–	–
NCI-H1993	0.755	0.631	0.796	0.618	0.931	0.776	0.845	0.581	0.901	0.884	0.927	0.651	0.549	0.542	–	0.574	0.998	0.897	1.05	0.722
LC-2-ad	1.09	0.95	0.821	0.544	0.441	0.452	0.405	0.369	0.412	0.431	0.396	0.147	0.87	0.792	0.798	–	0.732	0.602	0.677	0.608
RERF-LC-KJ	1.3	1.21	1.2	0.983	0.815	0.792	0.734	0.689	0.994	0.93	0.804	0.997	0.532	0.592	0.645	0.508	0.945	0.865	0.871	0.668
H3255	0.753	0.67	1.02	0.879	0.801	0.765	1.01	0.769	0.336	0.594	0.569	0.463	0.71	0.475	0.592	0.558	0.554	0.602	0.564	0.503
NCI-H727	0.254	0.351	0.515	0.343	0.683	0.783	0.787	0.402	0.481	0.5	0.489	0.242	0.942	–	0.803	0.645	0.659	0.678	0.79	0.624
